From patent US20260001898A1, “Heteroaryl compounds as inhibitors of TYK2/JAK1, composition and application thereof” (Accro Bioscience (HK) Limited, priority 2022, published 2026)

Columns and labels:
[1] = system: IFNα induced TYK2/JAK1 mediated STAT activation; assay: Luciferase assay in L929 ISRE cells stimulated with IFN-α; type: cell-based; details: IFN-α 100 ng/mL; for inhibition at 0.05 µM / inhibition at 0.2 µM / inhibition at 1 µM: Mus musculus; for inhibition at 0.05 µM: read-out: Inhibitory activity % (50 nM); for inhibition at 0.2 µM: read-out: Inhibitory activity % (200 nM); for inhibition at 1 µM: read-out: Inhibitory activity % (1000 nM)
Experimental: • 1. L929 ISRE cells (5000 cells/well) were seeded on 96-well plates and incubated overnight at room temperature-; • 2. The cells were pretreated by adding different concentrations (10 nM, 50 nM, 100 nM, 200 nM or 1000 nM) of the test compounds for 2 hours; • 3. Added IFN-α (100 ng/mL) to stimulate cells for 6 hours; • 4. Removed the upper medium, add PBS (100 μL) and washed, then removed PBS; • 5. Added PLB lysis solution (50 μL) to each well, shook the well for 15 minutes; • 6. Transferred PLB lysis solution (30 μL) to a new 96-well whiteboard, added LAR II reagent (LAR II), then quickly read the 450 nm OD value with a plate washer; • 7. Added Stop & Glo reagent (30 μL), then read the 450 nm OD value using the plate washer. • 8. The final result was the OD value in step 6/OD value in step 7.

TYK2/JAK2 pathway = assay: Western blot p-STAT4/STAT4 in IL-12-stimulated mouse spleen cells; type: cell-based, mice; details: IL-12 50 ng/mL
Experimental: The spleen of mice was isolated and ground into single cells with bent tweezers. The single cells of the spleen were centrifuged for 5 minutes (400 g), and erythrocytes were lysed with Ammonium-Chloride-Potassium (ACK) solution and neutralized in 1640 medium, centrifuged for 5 minutes (400 g), and then re-suspended in 1640 medium. The spleen single cell suspension was counted, transferred to and incubated on a 6-well plate (5 million/well). The compounds to be tested were added. After 2 hours, IL-12 (50 ng/mL) was added to stimulate the cells for 1 h. The cells were collected and lysed with protein lysate. The protein was quantitatively tested by BCA kit. Finally, p-STAT4/STAT4 and internal reference protein […] were detected by Western blot.

JAK1/JAK2 pathway = assay: Western blot p-STAT1/STAT1 in IFN-γ-stimulated HT-29 cells; type: cell-based; details: IFN-γ 100 ng/mL
Experimental: HT-29 cells were digested by trypsin and suspended in Dulbecco's Modified Eagle Medium (DMEM) and counted. The tested compounds were added into the 6 well plates (400 000/per well). After 2 hours, IFN-γ (100 ng/mL) was added to stimulate cells for 30 minutes. The cells were collected and lysed with protein lysate. The protein was quantitatively tested by BCA kit. Finally, p-STAT1/STAT1 and internal reference protein β-actin were detected by Western blot.

JAK2/JAK2 pathway = assay: Western blot p-STAT3/STAT3 in TPO-stimulated HEL cells; type: cell-based; details: TPO 100 ng/mL
Experimental: HEL cells were digested by trypsin, re-suspended in 1640 medium and counted. The compounds to be measured were added to 6 well plates (1 million/per well) for 2 hours, and then thrombopoietin (TPO)(final concentration: 100 ng/mL) was added to stimulate cells for 30 minutes. The cells were collected and lysed with protein lysate. The protein was quantitatively tested by bicinchoninic acid (BCA) kit. Finally, p-STAT3/STAT3 and internal reference protein β-actin were detected by Western blot.

JAK2 and TYK2 = details: some studies, background; cited from earlier work
[2] = system: IFNα induced CXCL-10 in PBMC; assay: ELISA of IFNα induced CXCL-10 in PBMC; type: cell-based; details: IFNα induced CXCL-10 in PBMC
Experimental: • 1. Soak plate: Add 300 μL 1× washing solution and let stand for 30 seconds. After discarding the washing solution, anhydrous the microporous plate on absorbent paper. • 2. Add standard: Add 100 μL of 2-fold standard to standard well. Add 100 μL standard dilution (serum/plasma sample) or culture medium (cell culture supernatant sample) to blank well. • 3. Add sample: Serum/plasma: Add 50 μL 1× assay buffer and 50 μL sample to sample well. Cell culture supernatant: Add 100 μL cell culture supernatant to sample well. • 4. Add detection antibody: Add 50 μL diluted detection antibody (1:100 diluted) to each well. Make sure steps 4, 5 and 6 are added continuously without interruption. The sampling process was completed within 15 minutes. • 5. Incubation: Use sealing plate film to seal the plate. Shake at 300 rpm and incubate for 2 hours at room temperature. • 6. Washing: Discard the liquid, add 300 μL of washing solution and wash the plate 6 times. Pat anhydrous on blotting paper after each wash. To obtain the desired experimental performance, the residual liquid must be completely removed. • 7. Enzyme addition: Add 100 μL diluted horseradish peroxidase labeled streptavidin to each well (1:100 diluted). • 8. Incubation: Seal the plate with a new sealing film. Shake at 300 rpm and incubate at room temperature for 45 minutes. • 9. Washing: Repeat […]. • 10. Add substrate for color development: Add 100 μL of color development substrate TMB to each well, keep away from light, and incubate at room temperature for 5-30 minutes. • 11. Add Stop Solution: Add 100 μL stop solution to each well. The color changed from blue to yellow. If the color appears green or the color changes unevenly, gently tap the frame of the plate to mix well. • 12. Assay readout: Within 30 minutes, perform dual wavelength detection using a microplate reader to measure the OD at the absorption maximum at 450 nm and reference wavelengths at 570 nm or 630 nm. The calibrated OD value is the measured value at 450 nm minus the measured value at 570 nm or 630 nm.

Row | Compound | inhibition at 0.05 µM ([1]; 50 nM compound) | inhibition at 0.2 µM ([1]; 200 nM compound) | inhibition at 1 µM ([1]; 1000 nM compound) | inhibition of downstream STAT4 phosphorylation induced by IL-12 (TYK2/JAK2 pathway) (TYK2/JAK2 pathway) | effect on downstream STAT1 phosphorylation induced by IFN-γ (JAK1/JAK2 pathway) (JAK1/JAK2 pathway) | effect on TPO-induced downstream STAT3 phosphorylation (JAK2/JAK2 pathway) (JAK2/JAK2 pathway) | ratio of JAK2 IC50/TYK2 IC50 (JAK2 and TYK2) | Inhibitory activity % (50 nM) ([1]; 50 nM compound) | Inhibitory activity % (200 nM) ([1]; 200 nM compound) | Inhibitory activity % (1000 nM) ([1]; 1000 nM compound) | IC50 [2]
1 | COc1c(Nc2cc(NC(=O)C3CC3)nnc2C(N)=O)cc(F)cc1-c1cc(P(=O)(C2CC2)C2CC2)n(C)n1 [Compound A8] | 84% | 88% | 96% | effectively inhibited the downstream STAT4 phosphorylation induced by IL-12 | inhibited JAK1/JAK2 pathway in a concentration-dependent manner | – | – | – | – | – | –
2 | COc1c(Nc2cc(Nc3ccc(F)cn3)nnc2C(N)=O)cccc1-c1cc(P(=O)(C2CC2)C2CC2)n(C)n1 [Compound A9] | – | – | – | effectively inhibited the downstream STAT4 phosphorylation induced by IL-12 | inhibited JAK1/JAK2 pathway in a concentration-dependent manner | – | – | – | – | – | –
3 | COc1c(Nc2cc(Nc3cc(C)ccn3)nnc2C(N)=O)cccc1-c1cc(P(=O)(C2CC2)C2CC2)n(C)n1 [Compound A12] | 25% | 33% | 93% | effectively inhibited the downstream STAT4 phosphorylation induced by IL-12 | inhibited JAK1/JAK2 pathway in a concentration-dependent manner | had no effect on TPO-induced downstream STAT3 phosphorylation | – | – | – | – | –
4 | COc1c(Nc2cc(Nc3ccn(C)n3)nnc2C(N)=O)cccc1-c1cc(P(=O)(C2CC2)C2CC2)n(C)n1 [Compound A17] | – | 42% | 82% | effectively inhibited the downstream STAT4 phosphorylation induced by IL-12 | inhibited JAK1/JAK2 pathway in a concentration-dependent manner | had no effect on TPO-induced downstream STAT3 phosphorylation | – | – | – | – | –
5 | COc1c(Nc2cc(Nc3cc(C)ccn3)nnc2C(N)=O)cccc1-c1cc(P(C)(C)=O)n(C)n1 [Compound A29] | – | – | 93% | effectively inhibited the downstream STAT4 phosphorylation induced by IL-12 | inhibited JAK1/JAK2 pathway in a concentration-dependent manner | had no effect on TPO-induced downstream STAT3 phosphorylation | – | – | – | – | –
6 | COc1c(Nc2cc(Nc3cc(C#N)ccn3)nnc2C(N)=O)cccc1-c1cc(P(=O)(C2CC2)C2CC2)n(C)n1 [Compound A35] | 54% | 84% | 98% | effectively inhibited the downstream STAT4 phosphorylation induced by IL-12 | inhibited JAK1/JAK2 pathway in a concentration-dependent manner | had no effect on TPO-induced downstream STAT3 phosphorylation | – | – | – | – | –
7 | [2H]C([2H])([2H])n1nc(-c2cccc(Nc3cc(Nc4cc(C#N)ccn4)nnc3C(N)=O)c2OC)cc1P(=O)(C1CC1)C1CC1 [Compound A49] | 33% | 86% | 87% | effectively inhibited the downstream STAT4 phosphorylation induced by IL-12 | inhibited JAK1/JAK2 pathway in a concentration-dependent manner | had no effect on TPO-induced downstream STAT3 phosphorylation | – | – | – | – | –
8 | [2H]C([2H])([2H])n1nc(-c2cccc(Nc3cc(Nc4ccc(OC)cn4)nnc3C(N)=O)c2OC)cc1P(=O)(C1CC1)C1CC1 [Compound A50] | – | – | 77% | effectively inhibited the downstream STAT4 phosphorylation induced by IL-12 | inhibited JAK1/JAK2 pathway in a concentration-dependent manner | had no effect on TPO-induced downstream STAT3 phosphorylation | – | – | – | – | –
9 | Cn1cc(Nc2nccc(N3C[C@H]4CC[C@@H](C3)N4C(=O)[C@@H]3CC3(F)F)n2)cn1 [PF-06700841] | – | – | – | – | – | – | about 3.3 | – | – | – | –
10 | BMS986165 [reference compound] | – | – | – | – | had no effect on downstream STAT1 phosphorylation induced by IFN-γ | had no effect on TPO-induced downstream STAT3 phosphorylation | – | 62% | 94% | 99% | 16.6 nM
